Source: patent US10202350B2, “MCT4 inhibitors for treating disease” (Vettore, LLC, priority 2015, dated 2019)

Key:
MCT4 [1] = molecular target: T1, MCT4 (Homo sapiens (Human), UniProt O15427); test: Lactate transport in MCT4-expressing MDA-MB-453 breast cancer cells (BCECF); format: cell-based; conditions: MDA-MB-453 cells stably expressing MCT4; 50 mM L-lactate
Protocol: Assay 1: Lactate Transport in MCT4-Expressing MDA-MB-453 Breast Cancer Cells. […] The following is an exemplary procedure for assaying MCT4 activity of the compounds of Formula (I). Preparing BCECF-Loaded Cells: […] The cells are pelleted (300 g, 5 min), washed once with 1 mL Tyrode's Solution, pH 7.4, re-pelleted (300 g, 5 min), and resuspended in 1 mL Tyrode's Solution, pH 7.4. Lactate Transport Assay: […] Fluorescence measurements are performed on a PerkinElmer LS55 fluorescence spectrometer with dual excitation wavelengths achieved using a filter wheel (FL Winlab program: Fast Filter; […] Emission 535). After establishing baseline BCECF fluorescence (around 10-20 s), 50 μL of 1 M sodium L-lactate (Sigma-Aldrich) is added to the cuvette (final concentration: 50 mM) and rapidly mixed.

MCT4 [2] = molecular target: T1, MCT4; test: MCT4-mediated lactate transport in NCI-H358 lung adenocarcinoma cells; format: cell-based; conditions: native MCT4, 50 mM L-lactate
Protocol: Cells (˜7×10^6) are trypsinized (0.05% Trypsin-EDTA), pelleted (300 g, 5 min), and resuspended in 1 mL Tyrode's Solution, pH 7.4 (119 mM NaCl, 5 mM KCl, 25 mM HEPES, pH 7.4, 2 mM CaCl2, 2 mM MgCl2, 6 g/L glucose). 10 μL of a 30 mM DMSO stock of BCECF-AM ester (Life Technologies) is added and the cells are incubated at 37° C. for 5 min. The cells are pelleted (300 g, 5 min), washed once with 1 mL Tyrode's Solution, pH 7.4, re-pelleted (300 g, 5 min), and resuspended in 1 mL Tyrode's Solution, pH 7.4.
(§1) 2.5 μL BCECF-loaded cells, along with either 10 μL DMSO or 100×compound in DMSO, are added to 937.5 μL of Tyrode's Solution in a quartz 1.0 mL cuvette (PerkinElmer, B0631116). Fluorescence measurements are performed on a PerkinElmer LS55 fluorescence spectrometer with dual excitation wavelengths achieved using a filter wheel (FL Winlab program: Fast Filter; Excitation 490/440; Emission 535). After establishing baseline BCECF fluorescence (around 10-20 s), 50 μL of 1 M sodium L-lactate (Sigma-Aldrich) is added to the cuvette (final concentration: 50 mM) and rapidly mixed. The time-dependent decrease in BCECF fluorescence (490/440 ratio) may be fit to an exponential decay curve (Prism GraphPad) to determine the rate of lactate transport.
Assay 2: MCT4-Mediated Lactate Transport in NCI-H358 Lung Adenocarcinoma Cells.
NCI-H358 lung adenocarcinoma cells may be used to measure MCT4 activity in cells with high native levels of MCT4 and low levels of MCT1 and are known to those with skill in the art. Preparation of BCECF-loaded cells and lactate transport activity may be determined as described for Assay 1.

MCT1 = MCT1 (Homo sapiens (Human), UniProt P53985); test: MCT1-mediated lactate transport in BT20 breast cancer cells; format: cell-based; conditions: native MCT1, 10 mM L-lactate
Sequence of MCT1 (P53985 whole entry): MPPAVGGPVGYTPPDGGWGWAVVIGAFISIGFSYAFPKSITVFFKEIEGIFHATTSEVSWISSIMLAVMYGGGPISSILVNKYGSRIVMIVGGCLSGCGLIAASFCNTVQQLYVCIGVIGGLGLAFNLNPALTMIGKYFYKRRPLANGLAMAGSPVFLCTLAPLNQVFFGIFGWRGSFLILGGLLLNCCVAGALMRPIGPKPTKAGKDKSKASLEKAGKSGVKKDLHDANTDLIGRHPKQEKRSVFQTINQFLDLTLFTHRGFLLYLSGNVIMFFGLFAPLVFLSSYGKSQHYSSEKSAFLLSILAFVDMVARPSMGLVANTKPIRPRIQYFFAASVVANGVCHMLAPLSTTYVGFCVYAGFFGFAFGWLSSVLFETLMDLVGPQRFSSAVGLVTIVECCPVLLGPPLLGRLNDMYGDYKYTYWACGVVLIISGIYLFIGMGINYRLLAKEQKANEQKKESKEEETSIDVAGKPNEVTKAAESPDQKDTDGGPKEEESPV
Sequence of MCT1 (P35613 140-385 partner): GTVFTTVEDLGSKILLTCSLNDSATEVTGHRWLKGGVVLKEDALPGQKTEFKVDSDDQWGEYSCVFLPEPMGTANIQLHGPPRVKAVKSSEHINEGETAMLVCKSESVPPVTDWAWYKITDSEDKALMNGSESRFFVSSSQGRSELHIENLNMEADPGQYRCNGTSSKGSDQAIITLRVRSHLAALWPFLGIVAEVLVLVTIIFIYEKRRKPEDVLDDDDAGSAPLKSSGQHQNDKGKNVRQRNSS
Protocol: (§2) 10 μL of a 30 mM DMSO stock of BCECF-AM ester (Life Technologies) is added and the cells are incubated at 37° C. for 5 min. The cells are pelleted (300 g, 5 min), washed once with 1 mL Tyrode's Solution, pH 7.4, re-pelleted (300 g, 5 min), and resuspended in 1 mL Tyrode's Solution, pH 7.4.
as §1, with “Fluorescence measurements are performed on a PerkinElmer LS55 fluorescence spectrometer with dual excitation wavelengths achieved using a filter wheel (FL Winlab program: Fast Filter; Excitation 490/440; Emission 535).” left out
Assay 4: MCT1-Mediated Lactate Transport in BT20 Breast Cancer Cells.
Preparation of BCECF loaded cells are as described for Assay 1. Lactate transport assay is as described for Assay 1, except 10 mM L-lactate (rather than 50 mM) is added.

MCT4 [3] = molecular target: T1, MCT4; test: MCT4-mediated lactate transport in MDA-MB-231 breast cancer cells; format: cell-based; conditions: MDA-MB-231 cells, native MCT4; 50 mM L-lactate
Protocol: as §2
as §1, with “Fluorescence measurements are performed on a PerkinElmer LS55 fluorescence spectrometer with dual excitation wavelengths achieved using a filter wheel (FL Winlab program: Fast Filter; Excitation 490/440; Emission 535).” left out
Preparation of BCECF-loaded cells and lactate transport activity may be determined as described for Assay 1.

[4] = Metabolic stability in human liver microsomes; format: in vitro ADME; conditions: human liver microsomes 0.5 mg/mL, 2 μM compound; remaining percentage of parent at 60 min
Protocol: (§3) Metabolic Stability Assays The following are assays that may be used to evaluate the metabolic stability of compounds of Formula (I) in human or mouse microsomes. 1. […] Two separated experiments were performed as follows. a) With NADPH: 10 μL of 20 mg/mL liver microsomes and 40 μL of 10 mM NADPH were added to the incubations. […] The final concentration of microsomes was 0.5 mg/mL. 3. The reaction was started with the addition of 4 μL of 200 μM control compound or test compound solutions. Verapamil was used as positive control in this study. The final concentration of test compound or control compound was 2 μM. 4. Aliquots of 50 μL were taken from the reaction solution at 0, 15, 30, 45 and 60 min. […] Samples were centrifuged at 3, 220 g for 40 minutes. Aliquot of 90 μL of the supernatant was mixed with 90 μL of ultra-pure H2O and then used for LC-MS/MS analysis. 5. Data analysis. All calculations were carried out using Microsoft Excel. Peak areas were determined from extracted ion chromatograms. The slope value, k, was determined by linear regression of the natural logarithm of the remaining percentage of the parent drug vs. incubation time curve. The in vitro half-life (in vitro t½) was determined from the slope value: in vitro t1/2=−(0.693)/k.

[5] = Metabolic stability in mouse liver microsomes; format: in vitro ADME; conditions: mouse liver microsomes 0.5 mg/mL, 2 μM compound; remaining percentage of parent at 60 min
Protocol: as §3

T1 sequence (O15427 whole entry, looked up): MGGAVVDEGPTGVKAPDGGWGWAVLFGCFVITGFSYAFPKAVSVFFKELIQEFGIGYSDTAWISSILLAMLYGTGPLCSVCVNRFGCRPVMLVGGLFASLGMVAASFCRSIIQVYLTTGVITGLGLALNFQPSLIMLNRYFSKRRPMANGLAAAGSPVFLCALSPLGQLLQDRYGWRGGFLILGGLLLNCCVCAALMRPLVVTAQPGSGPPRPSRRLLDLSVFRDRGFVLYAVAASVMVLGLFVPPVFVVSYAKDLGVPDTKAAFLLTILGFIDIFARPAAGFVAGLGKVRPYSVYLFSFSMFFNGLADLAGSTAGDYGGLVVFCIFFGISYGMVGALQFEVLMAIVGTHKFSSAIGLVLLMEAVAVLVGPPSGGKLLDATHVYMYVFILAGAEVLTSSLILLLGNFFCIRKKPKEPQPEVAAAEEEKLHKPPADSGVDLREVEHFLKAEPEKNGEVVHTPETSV
T1 sequence (P35613 whole entry partner, looked up): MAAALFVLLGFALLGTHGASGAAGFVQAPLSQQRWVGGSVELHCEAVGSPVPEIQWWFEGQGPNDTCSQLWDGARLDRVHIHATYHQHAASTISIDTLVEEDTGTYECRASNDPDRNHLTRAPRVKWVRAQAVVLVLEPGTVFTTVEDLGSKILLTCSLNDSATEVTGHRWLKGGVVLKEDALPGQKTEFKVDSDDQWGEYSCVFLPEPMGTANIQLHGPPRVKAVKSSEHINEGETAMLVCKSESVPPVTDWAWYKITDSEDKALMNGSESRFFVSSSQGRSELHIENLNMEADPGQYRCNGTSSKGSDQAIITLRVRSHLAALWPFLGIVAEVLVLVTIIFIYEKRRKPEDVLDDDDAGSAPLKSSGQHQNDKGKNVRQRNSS

SMILES	IC50 (MCT4 [1]) [nM]	IC50 (MCT4 [2]) [nM]	IC50 (MCT1; Table 2) [nM]	IC50 (MCT4 [3]) [nM]	IC50 (MCT1; Table 3) [nM]	Human microsome % 60 min [4] [%]	Mouse microsome % 60 min [5] [%]
CC(C)(OCc1cc(-c2nccs2)n(Cc2ccccc2Cl)n1)C(=O)O [Example 18, 2-[[1-[(2-Chlorophenyl)methyl]-5-thiazol-2-yl-pyrazol-3-yl]methoxy]-2-methyl-propanoic acid]	5300	4200	45000	–	–	–	–
CC(C)(OCc1cc(-c2ccc(Cl)cc2)n(Cc2ccccc2Cl)n1)C(N)=O [Example 20, 2-[[5-(4-Chlorophenyl)-1-[(2-chlorophenyl)methyl]pyrazol-3-yl]methoxy]-2-methyl-propanamide]	17000	22000	7900	–	–	–	–
CC(C)(OCc1cc(-c2ccc(Cl)cc2)n(Cc2ccncc2)n1)C(=O)O [Example 21, 2-[[5-(4-chlorophenyl)-1-(4-pyridylmethyl)pyrazol-3-yl]methoxy]-2-methyl-propanoic acid]	35000	48000	300000	–	–	–	–
CC(C)(OCc1cc(-c2ccc(Cl)cc2)n(Cc2ccccn2)n1)C(=O)O [Example 22, 2-[[5-(4-Chlorophenyl)-1-(2-pyridylmethyl)pyrazol-3-yl]methoxy]-2-methyl-propanoic acid]	14000	39000	150000	–	–	–	–
CC(C)COc1cccc(-c2cc(COC(C)(C)C(=O)O)nn2Cc2ccccc2Cl)c1 [Example 27, 2-[[1-[(2-Chlorophenyl)methyl]-5-(3-isobutoxyphenyl)pyrazol-3-yl]methoxy]-2-methyl-propanoic acid]	–	–	–	1	5600	43	50
CC(C)Oc1cccc(-c2cc(COC(C)(C)C(=O)O)nn2Cc2ccccc2Cl)c1 [Example 35, 2-[[1-[(2-Chlorophenyl)methyl]-5-(3-isopropoxyphenyl)pyrazol-3-yl]methoxy]-2-methyl-propanoic acid]	–	–	–	5.2	59000	67	31
COc1cccc(-c2cc(COC(C)(C)C(=O)O)nn2Cc2ccccc2OC)c1 [Example 36, 2-[[5-(3-Methoxyphenyl)-1-[(2-methoxyphenyl)methyl]pyrazol-3-yl]methoxy]-2-methyl-propanoic acid]	–	–	–	82	50000	85	99
COc1cccc(-c2cc(COC(C)(C)C(=O)O)nn2Cc2ccccc2N(C)C)c1 [Example 38, 2-[[1-[[2-(Dimethylamino)phenyl]methyl]-5-(3-methoxyphenyl)pyrazol-3-yl]methoxy]-2-methyl-propanoic acid]	–	–	–	48	60000	56	61
COc1cccc(-c2cc(COC(C)(C)C(=O)O)nn2-c2ccccc2Cl)c1 [Example 57, 2-[[1-(2-chlorophenyl)-5-(3-methoxyphenyl)-1H-pyrazol-3-yl]methoxy]-2-methylpropanoic acid]	–	–	–	–	> 133000	80	100

Now from value to molecule:

IC50 (MCT4 [1]) [nM]	IC50 (MCT4 [2]) [nM]	IC50 (MCT1; Table 2) [nM]	IC50 (MCT4 [3]) [nM]	IC50 (MCT1; Table 3) [nM]	Human microsome % 60 min [4] [%]	Mouse microsome % 60 min [5] [%]	SMILES
320	340	39000	–	–	–	–	CC(C)(OCc1cc(-c2ccccc2Cl)n(Cc2ccccc2Cl)n1)C(=O)O [Example 9, 2-[[5-(2-Chlorophenyl)-1-[(2-chlorophenyl)methyl]pyrazol-3-yl]methoxy]-2-methyl-propanoic acid]
21	33	8800	–	–	–	–	CC(C)(OCc1cc(-c2cccc(Cl)c2)n(Cc2ccccc2Cl)n1)C(=O)O [Example 10, 2-[[5-(3-Chlorophenyl)-1-[(2-chlorophenyl)methyl]pyrazol-3-yl]methoxy]-2-methyl-propanoic acid]
45	25	29000	–	–	–	–	Cc1cccc(-c2cc(COC(C)(C)C(=O)O)nn2Cc2ccccc2Cl)c1 [Example 11, 2-[[1-[(2-Chlorophenyl)methyl]-5-(m-tolyl)pyrazol-3-yl]methoxy]-2-methyl-propanoic acid]
38	49	58000	–	–	–	–	CC(C)(OCc1cc(-c2cccc(F)c2)n(Cc2ccccc2Cl)n1)C(=O)O [Example 12, 2-[[1-[(2-Chlorophenyl)methyl]-5-(3-fluorophenyl)pyrazol-3-yl]methoxy]-2-methyl-propanoic acid]
20	22	17000	–	–	–	–	CC(C)(OCc1cc(-c2cccc(C(F)(F)F)c2)n(Cc2ccccc2Cl)n1)C(=O)O [Example 13, 2-[[1-[(2-Chlorophenyl)methyl]-5-[3-(trifluoromethyl)phenyl]pyrazol-3-yl]methoxy]-2-methyl-propanoic acid]
900	440	> 33000	–	–	–	–	CC(C)(OCc1cc(C2CCCCC2)n(Cc2ccccc2Cl)n1)C(=O)O [Example 15, 2-[[1-[(2-Chlorophenyl)methyl]-5-cyclohexyl-pyrazol-3-yl]methoxy]-2-methyl-propanoic acid]
1000	640	73000	–	–	–	–	CC(C)(OCc1cc(C2CCCC2)n(Cc2ccccc2Cl)n1)C(=O)O [Example 16, 2-[[1-[(2-Chlorophenyl)methyl]-5-cyclopentyl-pyrazol-3-yl]methoxy]-2-methyl-propanoic acid]
440	860	1200	–	–	–	–	O=C(O)C1(OCc2cc(-c3ccc(Cl)cc3)n(Cc3ccccc3Cl)n2)CC1 [Example 17, 1-[[5-(4-Chlorophenyl)-1-[(2-chlorophenyl)methyl]pyrazol-3-yl]methoxy]cyclopropanecarboxylic acid]
110	160	57000	–	–	–	–	CC(C)(OCc1cc(-c2ccc(Cl)cc2)n(Cc2ccccc2F)n1)C(=O)O [Example 19, 2-[[5-(4-Chlorophenyl)-1-[(2-fluorophenyl)methyl]pyrazol-3-yl]methoxy]-2-methyl-propanoic acid]
